Results taken from US10053453B2, “Compounds and their use as BACE inhibitors” (AstraZeneca AB, priority 2014, dated 2018).

Key:
Human BACE1 = target: T1, Human BACE1 (Homo sapiens, UniProt P56817); assay: Diluted TR-FRET assay; assay type: biochemical; conditions: 50 times less enzyme, 6.5 h reaction time at r.t.; read-out: IC50 BACE1 (dil. TR-FRET)
T1 construct: the soluble part of the human β-Secretase1 (AA1-AA460) was cloned using the BACE1(1-460)-(AVT)-Fc-pGEN-IRES-neo mammalian expression vector; AVT linker (C); made in house
T1 sequence (P56817 22-460): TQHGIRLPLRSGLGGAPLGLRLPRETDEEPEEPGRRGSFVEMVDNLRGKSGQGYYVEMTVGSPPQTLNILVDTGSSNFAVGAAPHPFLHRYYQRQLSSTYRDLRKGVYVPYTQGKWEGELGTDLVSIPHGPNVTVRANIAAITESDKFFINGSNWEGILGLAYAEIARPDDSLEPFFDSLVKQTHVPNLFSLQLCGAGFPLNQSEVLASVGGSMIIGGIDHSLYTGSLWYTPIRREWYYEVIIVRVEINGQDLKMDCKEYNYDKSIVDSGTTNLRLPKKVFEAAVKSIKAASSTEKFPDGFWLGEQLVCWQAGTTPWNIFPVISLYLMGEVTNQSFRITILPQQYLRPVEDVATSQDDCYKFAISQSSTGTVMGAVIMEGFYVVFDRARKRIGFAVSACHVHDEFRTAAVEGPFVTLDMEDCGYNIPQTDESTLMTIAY
Outline: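 Human BACE1 (residues 1-460) was fused to an IgG1 Fc affinity tag and stably expressed in HEK 293 cells. Using a Multidrop Combi, 7 μL enzyme was added to 0.8 μL compound in dimethylsulphoxide and incubated 10 minutes. Reactions were stopped with 5.5 μL NaOAC Stop solution (pH 9), and TR-FRET fluorescence was read on a Pherastar HTRF module.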

Human BACE2 = target: T2, Human BACE2 (Homo sapiens, UniProt Q9Y5Z0); assay: TR-FRET assay; assay type: biochemical; conditions: enzyme 2.7 μg/mL, substrate 100 nM, pH4.5
T2 construct: the soluble part of the human β-Secretase2 (AA1-AA473) was cloned using BACE2(1-473)-(AVT)-Fc-pDEST12.2 mammalian expression vector; AVT linker (C); made in house
T2 sequence (Q9Y5Z0 21-473): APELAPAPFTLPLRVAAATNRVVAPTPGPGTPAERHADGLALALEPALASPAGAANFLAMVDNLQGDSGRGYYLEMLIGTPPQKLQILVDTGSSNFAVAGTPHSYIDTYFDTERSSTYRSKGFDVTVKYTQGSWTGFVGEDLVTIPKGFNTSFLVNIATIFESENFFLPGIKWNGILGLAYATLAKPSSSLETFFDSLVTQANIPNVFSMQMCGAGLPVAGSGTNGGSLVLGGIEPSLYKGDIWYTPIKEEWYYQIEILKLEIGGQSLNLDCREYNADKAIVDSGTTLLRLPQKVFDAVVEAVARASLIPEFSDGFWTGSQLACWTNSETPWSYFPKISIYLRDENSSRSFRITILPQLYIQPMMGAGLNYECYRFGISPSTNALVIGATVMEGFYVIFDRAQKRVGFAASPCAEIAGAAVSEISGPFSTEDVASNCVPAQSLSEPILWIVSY

SH-SY5Y cells = assay: sAPPβ release assay; conditions: Homo sapiens, SH-SY5Y, read-out: IC50 Cell (sAPPβ release, nM), SH-SY5Y cells, compounds incubated 16-17 h
Experimental: Cells were thawed and seeded at a concentration of around 10000 cells/well in DMEM/F-12 with Glutamax, 10% FCS and 1% non-essential amino acids to a 384-well tissue culture treated plate, 30 μL cell susp/well. The cell plates were then incubated for 7-24 h at 37° C., 5% CO2.
The cell medium was removed, followed by addition of 50 μL compound diluted in DMEM/F-12 with Glutamax, 10% FCS, 1% non-essential amino acids to a final cone of 0.5% DMSO. The compounds were incubated with the cells for 16-17 h (overnight) at 37° C., 5% CO2.
Meso Scale Discovery (MSD) plates were used for the detection of sAPP release. MSD sAPPβ plates were blocked in 1% BSA in Tris wash buffer for 1 h on shake at r.t. and washed 1 time in Tris wash buffer. […] The MSD plates were incubated with shaking at r.t. for 2 h and the media discarded. 10 μL detection antibody was added (1 nM) per well followed by incubation with shaking at r.t. for 2 h and then discarded. 35 μL Read Buffer was added per well and the plates were read in a Meso Scale Discovery SECTOR6000 Imager.

SMILES	IC50 (Human BACE1) [nM]	IC50 (Human BACE2) [nM]	IC50 (SH-SY5Y cells) [nM]
[2H]C([2H])([2H])O[C@@H]1CC[C@]2(Cc3ccc(-c4cccnc4)cc3[C@]23N=C(N)OC3([2H])[2H])C[C@H]1C [Compound 80, (1R,1′R,3R,4R)-4-(methoxy-d3)-3-methyl-6′-(pyridin-3-yl)-3′H,5″H-dispiro[cyclohexane-1,2′-indene-1′,4″-oxazol]-5″,5″-d2-2″-amine]	45	600	< 0.16
[2H]C([2H])([2H])O[C@@H]1CC[C@]2(Cc3ccc(-c4cnccn4)cc3[C@]23N=C(N)OC3([2H])[2H])C[C@H]1C [Compound 81, (1R,1′R,3R,4R)-4-(methoxy-d3)-3-methyl-6′-(pyrazin-2-yl)-3′H,5″H-dispiro[cyclohexane-1,2′-indene-1′,4″-oxazol]-5″,5″-d2-2″-amine]	423	> 5000	17
[2H]C1([2H])CC2(N=C(N)O1)c1cc(-c3cncnc3)ccc1C[C@]21CC[C@@H](OC)CC1 (stereo partly drawn) [Compound 82, (1r,4r)-4-methoxy-6′-(pyrimidin-5-yl)-5″,6″-dihydro-3′H-dispiro[cyclohexane-1,2′-indene-1′,4″-[1,3]oxazin]-6″,6″-d2-2″-amine]	138	1790	23
[2H]C1([2H])CC2(N=C(N)O1)c1cc(-c3cncc(C#N)c3)ccc1C[C@]21CC[C@@H](OC)CC1 (stereo partly drawn) [Compound 84, 5-((1r,4r)-2″-amino-4-methoxy-5″,6″-dihydro-3′H-dispiro[cyclohexane-1,2′-indene-1′,4″-[1,3]oxazin]-6′-yl-6″,6″-d2)nicotinonitrile]	88.7	103	4.8
[2H]C1([2H])CC2(N=C(N)O1)c1cc(-c3cc(C#N)cc(OC)c3)ccc1C[C@]21CC[C@@H](OC)CC1 (stereo partly drawn) [Compound 85, 3-((1r,4r)-2″-amino-4-methoxy-5″,6″-dihydro-3′H-dispiro[cyclohexane-1,2′-indene-1′,4″-[1,3]oxazin]-6′-yl-6″,6″-d2)-5-methoxybenzonitrile]	31.8	62.5	3.5
COCCCC1(C)Cc2ccc(-c3cc(C#N)cc(OC)c3)cc2C12COC(N)=N2 (stereo not drawn) [Compound 88, 3-(2′-amino-2-(3-methoxypropyl)-2-methyl-2,3-dihydro-5′H-spiro[indene-1,4′-oxazol]-6-yl)-5-methoxybenzonitrile]	1950	340	450
[2H]C1([2H])OC(N)=NC12c1cc(-c3cc(C#N)cc(OC)c3)ccc1CC2(C)C1CCOCC1 (stereo not drawn) [Compound 89, 3-(2′-amino-2-methyl-2-(tetrahydro-2H-pyran-4-yl)-2,3-dihydro-5′H-spiro[indene-1,4′-oxazol]-6-yl-5′,5′-d2)-5-methoxybenzonitrile]	> 5000	> 5000	889
COCCCC1Cc2ccc(-c3cc(C#N)cc(OC)c3)cc2C12COC(N)=N2 (stereo not drawn) [Compound 90, 3-(2′-amino-2-(3-methoxypropyl)-2,3-dihydro-5′H-spiro[indene-1,4′-oxazol]-6-yl)-5-methoxybenzonitrile]	> 5000	> 5000	715
COc1cc(C#N)cc(-c2ccc3c(c2)C2(COC(N)=N2)C(C2CCOCC2)C3)c1 (stereo not drawn) [Compound 91, 3-(2′-Amino-2-(tetrahydro-2H-pyran-4-yl)-2,3-dihydro-5′H-spiro[indene-1,4′-oxazol]-6-yl)-5-methoxybenzonitrile]	4660	701	331
COCCC1Cc2ccc(-c3cc(C#N)cc(OC)c3)cc2C12COC(N)=N2 (stereo not drawn) [Compound 92, 3-(2′-amino-2-(2-methoxyethyl)-2,3-dihydro-5′H-spiro[indene-1,4′-oxazol]-6-yl)-5-methoxybenzonitrile]	4160	437	223
COCCC1(C)Cc2ccc(-c3cc(C#N)cc(OC)c3)cc2C12COC(N)=N2 (stereo not drawn) [Compound 93, 3-(2′-amino-2-(2-methoxyethyl)-2-methyl-2,3-dihydro-5′H-spiro[indene-1,4′-oxazol]-6-yl)-5-methoxybenzonitrile]	> 5000	1210	561
